Tested on: HCV (Ib) RNA replication
Experiment: Cell-based luciferase reporter HCV (1b) RNA replication assay (replicon cell lines Huh-7 5.2 and ET)
Parameters: species or system Hepatitis C virus
Settings: Hepatitis C virus, Huh-7, 96 h, HCV 1b genotype replicon, luciferase readout, 4 days incubation; read-out: EC50_1b
Source text: Cell-Based Luciferase Reporter HCV (Ib) RNA Replication Assay Cell Culture
Replicon cell lines Huh-7, 5.2 and ET which are derived from the Huh-7 hepatocarcinoma cell line are maintained in culture as generally described in Krieger, N; Lohmann, V; Bartenschlager, R. Enhancement of hepatitis C virus RNA replication by cell culture-adaptive mutations. J. Virol. 2001, 75, 4614-4624. The Huh-7, 5.2 cells contain the highly cell culture-adapted replicon I389luc-ubi-neo/NS3-3′/5.1 construct that carries, in addition to the neomycin gene, an integrated copy to the firefly luciferase gene (Krieger, N; Lohmann, V; Bartenschlager, R. Enhancement of hepatitis C virus RNA replication by cell culture-adaptive mutations. J. Virol. 2001, 75, 4614-4624). This cell line allows measurement of HCV RNA replication and translation by measuring luciferase activity. It has been previously shown that the luciferase activity tightly follows the replicon RNA level in these cells (Krieger, N; Lohmann, V; Bartenschlager, R. Enhancement of hepatitis C virus RNA replication by cell culture-adaptive mutations. J. Virol. 2001, 75, 4614-4624). The Huh-7, ET cell line has the same features as those mentioned for Huh-7, 5.2 cell line, except that ET cells are more robust and contain an adaptative mutation in the HCV NS4B gene instead of NS5A. Both cell lines are maintained in cultures at a sub-confluent level (<85%) as the level of replicon RNA is highest in actively proliferating cells. The culture media used for cell passaging consist of DMEM (Gibco BRL Laboratories, Mississauga, ON, Canada) supplemented with 10% foetal bovine serum with 1% penicillin/streptomycin, 1% glutamine, 1% sodium pyruvate, 1% non-essential amino acids, and 180 ug/ml of G418 final concentration. Cells are incubated at 37° C., in an atmosphere of 5% CO2 and passaged twice a week to maintain sub-confluence.
Approximately 3000 viable Huh-7, 5.2 or ET cells (100 μl) are plated per well in a white opaque 96-well microtiter plate. The cell culture media used for the assay is the same as described above except that it contains no G418 and no phenol red. After an incubation period of 3-4 hours at 37° C. in a 5% CO2 incubator, compounds (100 μl) are added at various concentrations. Cells are then further incubated for 4 days at 37° C. in a 5% CO2 incubator. Thereafter, the culture media is removed and cells are lysed by the addition of 95 μL of the luciferase buffer (luciferin substrate in buffered detergent). Cell lysates are incubated at room temperature and protected from direct light for at least 10 minutes. Plates are read for luciferase counts using a luminometer (Wallac MicroBeta Trilux, Perkin ELmer™, MA, USA).
The 50% inhibitory concentrations (IC50s) for inhibitory effect are determined from dose response curves using eleven concentrations per compound in duplicate. Curves are fitted to data points using nonlinear regression analysis, and IC50s are interpolated from the resulting curve using GraphPad Prism software, version 2.0 (GraphPad Software Inc., San Diego, Calif., USA).
Table 2 show compounds representative of the present invention and the EC50 values against the HCV 1b genotype.

## COC(=O)N[C@@H](C(=O)N1CCC[C@H]1c1nc2cc(C#Cc3ccc4[nH]c([C@@H]5CCCN5C(=O)[C@H](NC(=O)OC)c5ccccc5)nc4c3)ccc2[nH]1)c1ccccc1 [Compound 33, {(R)-2-[(S)-2-(5-{2-[(S)-1-((R)-2-Methoxycarbonylamino-2-phenyl-acetyl)-pyrrolidin-2-yl]-1H-benzoimidazol-5-ylethynyl}-1H-benzoimidazol-2-yl)-pyrrolidin-1-yl]-2-oxo-1-phenyl-ethyl}-carbamic acid methylester]
  EC50: ≤ 5 nM

## COC(=O)N[C@H](C(=O)N1CCC[C@H]1c1nc2cc(C#Cc3ccc4[nH]c([C@@H]5CCCN5C(=O)OC(C)(C)C)nc4c3)ccc2[nH]1)C(C)C [Compound 34, (S)-2-(5-{2-[(S)-1-((S)-2-Methoxycarbonylamino-3-methyl-butyryl)-pyrrolidin-2-yl]-1H-benzoimidazol-5-ylethynyl}-1H-benzoimidazol-2-yl)-pyrrolidine-1-carboxylic acid tert-butyl ester]
  EC50: 5 to 5000 nM

## COC(=O)N[C@H](C(=O)N1CCC[C@H]1c1nc2cc(C#Cc3ccc4[nH]c([C@@H]5CCCN5C(=O)[C@@H](NC(=O)OC)C(C)(C)C)nc4c3)ccc2[nH]1)C(C)C [Compound 36, {(S)-1-[(S)-2-(5-{2-[(S)-1-((S)-2-Methoxycarbonylamino-3-methyl-butyryl)-pyrrolidin-2-yl]-1H-benzoimidazol-5-ylethynyl}-1H-benzoimidazol-2-yl)-pyrrolidine-1-carbonyl]-2,2-dimethyl-propyl}-carbamic acid methyl ester]
  EC50: ≤ 5 nM

## COC(=O)N[C@H](C(=O)N1CCC[C@H]1c1nc2cc(C#Cc3ccc4[nH]c([C@@H]5CCCN5C(=O)[C@@H](NC(=O)OC)C(C)C)nc4c3)ccc2[nH]1)C(C)C [Compound 37, {(S)-1-[(S)-2-(5-{2-[(S)-1-((S)-2-Methoxycarbonylamino-3-methyl-butyryl)-pyrrolidin-2-yl]-1H-benzoimidazol-5-ylethynyl}-1H-benzoimidazol-2-yl)-pyrrolidine-1-carbonyl]-2-methyl-propyl}-carbamic acid methyl ester]
  EC50: ≤ 5 nM

## COC(=O)N[C@H](C(=O)N1CCC[C@H]1c1nc2cc(C#Cc3ccc4[nH]c([C@@H]5CCCN5C(=O)[C@H]5CCCO5)nc4c3)ccc2[nH]1)C(C)C [Compound 38, {(S)-2-Methyl-1-[(S)-2-(5-{2-[(S)-1-((R)-tetrahydro-furan-2-carbonyl)-pyrrolidin-2-yl]-1H-benzoimidazol-5-ylethynyl}-1H-benzoimidazol-2-yl)-pyrrolidine-1-carbonyl]-propyl}-carbamic acid methyl ester]
  EC50: ≤ 5 nM

## COC(=O)N[C@H](C(=O)N1CCC[C@H]1c1nc2cc(C#Cc3ccc4[nH]c([C@@H]5CCCN5C(=O)[C@H](NC(=O)OC)c5ccccc5)nc4c3)ccc2[nH]1)C(C)C [Compound 39, {(S)-1-[(S)-2-(5-{2-[(S)-1-((R)-2-Methoxycarbonylamino-2-phenyl-acetyl)-pyrrolidin-2-yl]-1H-benzoimidazol-5-ylethynyl}-1H-benzoimidazol-2-yl)-pyrrolidine-1-carbonyl]-2-methyl-propyl}-carbamic acid methyl ester]
  EC50: ≤ 5 nM

## O=C(OCc1ccccc1)N1CCCC[C@H]1c1nc2cc(C#C/C=C/c3ccc4[nH]c([C@@H]5CCCCN5C(=O)OCc5ccccc5)nc4c3)ccc2[nH]1 [Compound 40, (S)-2-(5-{(E)-4-[2-((S)-1-Benzyloxycarbonyl-piperidin-2-yl)-1H-benzoimidazol-5-yl]-but-1-en-3-ynyl}-1H-benzoimidazol-2-yl)-piperidine-1-carboxylic acid benzyl ester]
  EC50: 5 to 5000 nM

## O=C(OCc1ccccc1)N1CCCC[C@H]1c1nc2cc(C#CC#Cc3ccc4[nH]c([C@@H]5CCCCN5C(=O)OCc5ccccc5)nc4c3)ccc2[nH]1 [Compound 41, (S)-2-(5-{4-[2-((S)-1-Benzyloxycarbonyl-piperidin-2-yl)-1H-benzoimidazol-5-yl]-buta-1,3-diynyl}-1H-benzoimidazol-2-yl)-piperidine-1-carboxylic acid benzyl ester]
  EC50: 5 to 5000 nM

## COC(=O)N[C@H](C(=O)N1CCC[C@H]1c1nc2cc(-c3cc(F)c(-c4ccc5nc([C@@H]6CCCN6C(=O)[C@@H](NC(=O)OC)C(C)C)[nH]c5c4)cc3F)ccc2[nH]1)C(C)C [Compound 42, ((S)-1-{(S)-2-[5-(4-{2-[(S)-1-((S)-2-Methoxycarbonylamino-3-methyl-butyryl)-pyrrolidin-2-yl]-1H-benzoimidazol-5-yl}-2,5-difluoro-phenyl)-1H-benzoimidazol-2-yl]-pyrrolidine-1-carbonyl}-2-methyl-propyl)-carbamicacid methyl ester]
  EC50: ≤ 5 nM

## COC(=O)N[C@H](C(=O)N1CCC[C@H]1c1nc2cc(-c3cnc(-c4ccc5[nH]c([C@@H]6CCCN6C(=O)[C@@H](NC(=O)OC)C(C)C)nc5c4)c(C)c3)ccc2[nH]1)C(C)C [Compound 43, Methyl N-[(1S)-1-[(2S)-2-[5-[5-[2-[(2S)-1-[(2S)-2-(methoxycarbonylamino)-3-methyl-butanoyl]pyrrolidin-2-yl]-1H-benzimidazol-5-yl]-3-methyl-2-pyridyl]-1H-benzimidazol-2-yl]pyrrolidine-1-carbonyl]-2-methyl-propyl]carbamate]
  EC50: ≤ 5 nM

## COC(=O)N[C@H](C(=O)N1CCC[C@H]1c1nc2cc(-c3cscc3-c3ccc4[nH]c([C@@H]5CCCN5C(=O)[C@@H](NC(=O)OC)C(C)C)nc4c3)ccc2[nH]1)C(C)C [Compound 44, Dimethyl-(2S,2′S)-1,1′-((2S,2′S)-2,2′-(5,5′-(thiophene-3,4-diyl)bis(1H-benzo[d]imidazole-5,2-diyl))bis(pyrrolidine-2,1-diyl))bis(3-methyl-1-oxobutane-2,1-diyl)dicarbamate]
  EC50: ≤ 5 nM

## CC(C)[C@H](NC(=O)O[C@H]1CCOC1)C(=O)N1CCC[C@H]1c1nc2cc(-c3cscc3-c3ccc4[nH]c([C@@H]5CCCN5C(=O)[C@@H](NC(=O)O[C@H]5CCOC5)C(C)C)nc4c3)ccc2[nH]1 [Compound 45, bis((S)-tetrahydrofuran-3-yl)-(2S,2′S)-1,1′-((2S,2′S)-2,2′-(5,5′-(thiophene-3,4-diyl)bis(1H-benzo[d]imidazole-5,2-diyl))bis(pyrrolidine-2,1-diyl))bis(3-methyl-1-oxobutane-2,1-diyl)dicarbamate]
  EC50: 5 to 5000 nM

## CC(C)[C@H](NC(=O)O[C@H]1CCOC1)C(=O)N1CCC[C@H]1c1nc2cc(-c3ccsc3-c3ccc4[nH]c([C@@H]5CCCN5C(=O)[C@@H](NC(=O)O[C@H]5CCOC5)C(C)C)nc4c3)ccc2[nH]1 [Compound 47, bis((S)-tetrahydrofuran-3-yl)-(2S,2′S)-1,1′-((2S,2′S)-2,2′-(5,5′-(thiophene-2,3-diyl)bis(1H-benzo[d]imidazole-5,2-diyl))bis(pyrrolidine-2,1-diyl))bis(3-methyl-1-oxobutane-2,1-diyl)dicarbamate]
  EC50: 5 to 5000 nM

## CC(C)(C)OC(=O)N1CCCC[C@H]1c1nc2cc(C#Cc3ccc4nc([C@@H]5CSCN5C(=O)OC(C)(C)C)[nH]c4c3)ccc2[nH]1 [Compound 48]
  EC50: > 5000 nM

## O=C(OCc1ccccc1)N1CCCC[C@H]1c1nc2cc(C#Cc3ccc4nc([C@@H]5CCCN5C(=O)OCc5ccccc5)[nH]c4c3)ccc2[nH]1 [Compound 49]
  EC50: 5 to 5000 nM

## COC(=O)N[C@@H](C)C(=O)N1CCC[C@H]1c1nc2cc(C#Cc3ccc4[nH]c([C@@H]5CCCN5C(=O)[C@H](C)NC(=O)OC)nc4c3)ccc2[nH]1 [Compound 50]
  EC50: ≤ 5 nM
